# Reference: EP0606044A1, “Lactones compounds useful as pharmaceuticals” (SANDOZ LTD., priority 1992, dated 1994)
# Columns and labels:
# THP-1 cells = experiment: Cytokine release from THP-1 cells (γ-interferon/LPS stimulated; ELISA, RIA, LDH, DNA); type: cell-based; conditions: Homo sapiens, γ-interferon, LPS, 40 hours, read-out: IC₅₀ value in the THP-1 test (concentration of compound which inhibits to 50 % the release of IL-1β)
# Experimental: 1. Cytokine Release from THP-1 Cells
# The THP-1 cell line is generally available and is described by Tsuchiya et al, Int. J. Cancer 26 171-176 (1980). 900 µl THP-1 cells (0.5 x 10⁶ cells) together with 100 U γ-interferon/0.9 ml RPMI 1640 medium (containing 2 mM L-glutamine and 5 % heat-inactivated foetal calf serum) are pipetted into 24 well culture plates. 100 µl of the compound to be tested are then added. After 3 hours at 37°C in 5 % CO2/95 % air, 10 µl lipopolysaccharide 500 µg/ml is added and the incubation continued for a further 40 hours. Appropriate controls (with and without stimulus, solvent) are also included. The media are then removed and clarified by centrifugation at 1000 g for 10 min. 1.0 ml digitonin 0.01 % is added to the wells to lyse the cells which are loosened by scraping with a rubber policeman and left at 4°C for 10 min. […] IL-1β, IL-6 and TNF-α assays are determined using commercially available ELISA kits (Cistron), PGE2 is measured using a standard RIA and DNA fluorimetrically using DAPI (4',6-diamidino-2-phenylindole.2HCl) […]
# For the above uses the required dosage will of course vary depending on the mode of administration, the particular condition to be treated and the effect desired. […] It has been determined that the compound of Formula I' has an IC₅₀ value in the THP-1 test (concentration of compound which inhibits to 50 % the release of IL-1β) of 0.06 µM.
# [1] = Solubility (characteristics of the metabolite); type: physicochemical
# Excerpt: Formula I', which is formula I in which R₄ and R₅ are methoxy, R₆ is OH, -a-b- is cis- -CH=CH-, c is C=O, -d-e- is -CHOH-CHOH-, -f-g- is trans- -CH=CH- and the asymmetric carbon atoms marked * all have the S-configuration [drawing 2] is the structure which has been assigned to the novel metabolite designated 87-250904-F1 and having the following characteristics: White needles (from methanol/water 1:1), m.p. […] HPLC : Column : LiChrospher 100 RP-8 (5µm) (LiChroCART 125-4, Merck) Mobile phase: acetonitrile/water/orthophosphoric acid 350:650:0.175 (by vol.) Flow rate: 1.0 ml/min Detection: UV 210 nm Retention time: 3.8 min.
IC50 (THP-1 cells),"Solubility in methanol, DMSO, chloroform ([1]; methanol, DMSO, chloroform)",Solubility in water ([1]; water),SMILES
60 nM,,,COc1cc(O)c2c(c1OC)/C=C/C[C@H](O)[C@H](O)C(=O)/C=C\C[C@H](C)OC2=O [Formula I']
,readily soluble,Almost insoluble,"COc1cc(O)c2c(c1OC)/C=C/C[C@H](O)[C@H](O)C(=O)/C=C\C[C@H](C)OC2=O [Formula I', [3S-(3R*, 5Z, 8R*, 9R*, 11E)]-3,4,9,10-tetrahydro-8,9,16-trihydroxy-13,14-dimethoxy-3-methyl-1H[2] benzoxacyclotetradecin-1,7[8H] dione]"
